“And” between values parts separate entries of the source, which are not always exact repeats. Identical values can stand only once.
System: BDF1 mice, Adenocarcinoma 755 s.c., tumor weight T/C
Assay: NCI In Vivo Anticancer Drug Screen. Data for tumor model Adenocarcinoma 755 (subcutaneous) in B6D2F1 (BDF1) mice
Details: endpoint: mean tumor weight, higher = larger tumour
Protocol: The antitumor activity of compounds was measured in mice bearing transplantable tumors. Survival or tumor size were measured and the results are expressed as the measurement made in the treated group (T) divided by the measurement made in the vehicle treated control group (C). The tumor model used in this assay is Adenocarcinoma 755 (subcutaneous) in B6D2F1 (BDF1) mice

[1] = dose: 25.0 mg/kg/injection, schedule: Q01DX011 (ip), vehicle: carboxymethylcellulose (CMC)
[2] = dose: 12.5 mg/kg/injection, schedule: Q01DX011 (ip), vehicle: carboxymethylcellulose (CMC)
[3] = dose: 50.0 mg/kg/injection, schedule: Q01DX011 (ip), vehicle: carboxymethylcellulose (CMC)
[4] = dose: 75.0 mg/kg/injection, schedule: Q01DX011 (ip), vehicle: carboxymethylcellulose (CMC)

In the case of CCn1cnc2c(=S)nc[nH]c21, the T/C (dose: 0.75 mg/kg/injection, schedule: Q01DX011 (ip), vehicle: carboxymethylcellulose (CMC)) is reported as 100 % of control, the T/C (dose: 0.75 mg/kg/injection, schedule: Q#A X022 (ip), vehicle: carboxymethylcellulose (CMC)) is reported as 18 % of control and the T/C (dose: 1.5 mg/kg/injection, schedule: Q01DX006 (iv), vehicle: carboxymethylcellulose (CMC)) is reported as 121 % of control. The T/C (dose: 1.5 mg/kg/injection, schedule: Q01DX011 (im), vehicle: carboxymethylcellulose (CMC)) was 14 % of control, the T/C (dose: 1.5 mg/kg/injection, schedule: Q01DX011 (sc), vehicle: carboxymethylcellulose (CMC)) was 39 % of control and the T/C (dose: 1.5 mg/kg/injection, schedule: Q#A X022 (ip), vehicle: carboxymethylcellulose (CMC)) was 1 % of control. The T/C (dose: 3.0 mg/kg/injection, schedule: Q01DX006 (iv), vehicle: carboxymethylcellulose (CMC)) was 22 % of control, the T/C (dose: 3.0 mg/kg/injection, schedule: Q01DX011 (im), vehicle: carboxymethylcellulose (CMC)) was 5 % of control and the T/C (dose: 3.0 mg/kg/injection, schedule: Q01DX011 (ip), vehicle: carboxymethylcellulose (CMC)) was 6 % of control and 19 % of control. The T/C (dose: 3.0 mg/kg/injection, schedule: Q01DX011 (sc), vehicle: carboxymethylcellulose (CMC)) was 17 % of control, the T/C (dose: 3.0 mg/kg/injection, schedule: Q#A X022 (ip), vehicle: carboxymethylcellulose (CMC)) was 1 % of control and the T/C (dose: 4.5 mg/kg/injection, schedule: Q03DX004 (ip), vehicle: carboxymethylcellulose (CMC)) was 24 % of control. For the same molecule, the T/C (dose: 4.6 mg/kg/injection, schedule: Q01DX011 (ip), vehicle: carboxymethylcellulose (CMC)) was 58 % of control, the T/C (dose: 4.62 mg/kg/injection, schedule: Q01DX011 (ip), vehicle: carboxymethylcellulose (CMC)) was 1 % of control and the T/C (dose: 6.0 mg/kg/injection, schedule: Q01DX006 (iv), vehicle: carboxymethylcellulose (CMC)) was 15 % of control. For the same molecule, the T/C (dose: 6.0 mg/kg/injection, schedule: Q01DX011 (im), vehicle: carboxymethylcellulose (CMC)) was 1 % of control, the T/C (dose: 6.0 mg/kg/injection, schedule: Q01DX011 (ip), vehicle: carboxymethylcellulose (CMC)) was 4 % of control and 13 % of control and the T/C (dose: 6.0 mg/kg/injection, schedule: Q01DX011 (sc), vehicle: carboxymethylcellulose (CMC)) was 3 % of control. The T/C (dose: 6.0 mg/kg/injection, schedule: Q#A X022 (ip), vehicle: carboxymethylcellulose (CMC)) was 1 % of control, the T/C (dose: 9.0 mg/kg/injection, schedule: Q03DX004 (ip), vehicle: carboxymethylcellulose (CMC)) was 23 % of control and the T/C (dose: 9.2 mg/kg/injection, schedule: Q01DX011 (ip), vehicle: carboxymethylcellulose (CMC)) was 20 % of control. For the same molecule, the T/C (dose: 9.25 mg/kg/injection, schedule: Q01DX011 (ip), vehicle: carboxymethylcellulose (CMC)) was 1 % of control, the T/C (dose: 9.25 mg/kg/injection, schedule: Q01DX011 (oral), vehicle: carboxymethylcellulose (CMC)) was 1 % of control and the T/C (dose: 11.0 mg/kg/injection, schedule: Q07DX002 (ip), vehicle: carboxymethylcellulose (CMC)) was 53 % of control. The T/C (dose: 12.0 mg/kg/injection, schedule: Q01DX006 (iv), vehicle: carboxymethylcellulose (CMC)) was 3 % of control, the T/C (dose: 12.0 mg/kg/injection, schedule: Q01DX011 (ip), vehicle: carboxymethylcellulose (CMC)) was 3 % of control and the T/C (dose: 18.0 mg/kg/injection, schedule: Q03DX004 (ip), vehicle: carboxymethylcellulose (CMC)) was 4 % of control. The T/C (dose: 18.5 mg/kg/injection, schedule: Q01DX011 (ip), vehicle: carboxymethylcellulose (CMC)) was 6 % of control, the T/C (dose: 22.0 mg/kg/injection, schedule: Q07DX002 (ip), vehicle: carboxymethylcellulose (CMC)) was 33 % of control and the T/C (dose: 25.0 mg/kg/injection, schedule: Q01DX006 (iv), vehicle: carboxymethylcellulose (CMC)) was 2 % of control. The T/C [1] was 1 % of control, the T/C (dose: 25.0 mg/kg/injection, schedule: Q01DX011 (sc), vehicle: carboxymethylcellulose (CMC)) was 1 % of control and the T/C (dose: 37.0 mg/kg/injection, schedule: Q01DX011 (ip), vehicle: carboxymethylcellulose (CMC)) was 2 % of control. For the same molecule, the T/C (dose: 37.0 mg/kg/injection, schedule: Q03DX004 (ip), vehicle: carboxymethylcellulose (CMC)) was 1 % of control, the T/C (dose: 44.0 mg/kg/injection, schedule: Q07DX002 (ip), vehicle: carboxymethylcellulose (CMC)) was 8 % of control and the T/C (dose: 75.0 mg/kg/injection, schedule: Q03DX004 (ip), vehicle: carboxymethylcellulose (CMC)) was 1 % of control. The T/C (dose: 87.0 mg/kg/injection, schedule: Q07DX002 (ip), vehicle: carboxymethylcellulose (CMC)) was 4 % of control and 8 % of control and the T/C (dose: 350.0 mg/kg/injection, schedule: Q07DX002 (ip), vehicle: carboxymethylcellulose (CMC)) was 2 % of control.
For Cc1ccc2c(c1)Sc1ccc3ccccc3c1N2, the T/C [2] was 57 % of control, the T/C (dose: 15.0 mg/kg/injection, schedule: Q01DX011 (ip), vehicle: saline) was 94 % of control and the T/C (dose: 22.0 mg/kg/injection, schedule: Q01DX011 (ip), vehicle: saline) was 42 % of control. The T/C [1] was 27 % of control, the T/C (dose: 33.0 mg/kg/injection, schedule: Q01DX011 (ip), vehicle: saline) was 36 % of control and the T/C [3] was 26 % of control and 42 % of control. The T/C (dose: 50.0 mg/kg/injection, schedule: Q01DX011 (ip), vehicle: saline) was 26 % of control and 51 % of control, the T/C (dose: 62.5 mg/kg/injection, schedule: Q01DX011 (ip), vehicle: carboxymethylcellulose (CMC)) was 58 % of control and the T/C [4] was 37 % of control. For the same molecule, the T/C (dose: 75.0 mg/kg/injection, schedule: Q01DX011 (ip), vehicle: saline) was 28 % of control, the T/C (dose: 112.0 mg/kg/injection, schedule: Q01DX011 (ip), vehicle: carboxymethylcellulose (CMC)) was 43 % of control and the T/C (dose: 112.0 mg/kg/injection, schedule: Q01DX011 (ip), vehicle: saline) was 14 % of control. For the same molecule, the T/C (dose: 168.0 mg/kg/injection, schedule: Q01DX011 (ip), vehicle: carboxymethylcellulose (CMC)) was 18 % of control and 22 % of control, the T/C (dose: 168.0 mg/kg/injection, schedule: Q01DX011 (ip), vehicle: saline) was 14 % of control and the T/C (dose: 335.0 mg/kg/injection, schedule: Q01DX011 (ip), vehicle: carboxymethylcellulose (CMC)) was 10 % of control.
For Nc1nc(S(N)(=O)=O)nc2nc[nH]c12, the T/C [1] was 57 % of control, the T/C [4] was 82 % of control and the T/C (dose: 225.0 mg/kg/injection, schedule: Q01DX011 (ip), vehicle: carboxymethylcellulose (CMC)) was 72 % of control.
For Nc1nc(SCC(=O)c2ccccc2)c2ncn(C3OC(CO)C(O)C3O)c2n1 (configuration not stated), the T/C (dose: 37.5 mg/kg/injection, schedule: Q01DX011 (ip), vehicle: methylcellulose (MC)) was 15 % of control, the T/C (dose: 75.0 mg/kg/injection, schedule: Q01DX011 (ip), vehicle: methylcellulose (MC)) was 5 % of control and the T/C (dose: 150.0 mg/kg/injection, schedule: Q01DX011 (ip), vehicle: methylcellulose (MC)) was 5 % of control.
With CCc1nc(N)nc(N)c1-c1ccc(Cl)cc1 the T/C (dose: 3.0 mg/kg/injection, schedule: Q01DX011 (ip), vehicle: methylcellulose (MC)) was 52 % of control, the T/C (dose: 6.0 mg/kg/injection, schedule: Q01DX011 (ip), vehicle: methylcellulose (MC)) was 38 % of control and the T/C (dose: 6.25 mg/kg/injection, schedule: Q01DX011 (ip), vehicle: carboxymethylcellulose (CMC)) was 77 % of control. The T/C (dose: 11.85 mg/kg/injection, schedule: Q01DX011 (ip), vehicle: carboxymethylcellulose (CMC)) was 82 % of control, the T/C (dose: 12.0 mg/kg/injection, schedule: Q01DX011 (ip), vehicle: methylcellulose (MC)) was 49 % of control and the T/C [2] was 99 % of control. For the same molecule, the T/C (dose: 23.7 mg/kg/injection, schedule: Q01DX011 (ip), vehicle: carboxymethylcellulose (CMC)) was 116 % of control, the T/C [1] was 115 % of control and the T/C (dose: 25.0 mg/kg/injection, schedule: Q01DX011 (ip), vehicle: methylcellulose (MC)) was 62 % of control. For the same molecule, the T/C (dose: 47.4 mg/kg/injection, schedule: Q01DX011 (ip), vehicle: carboxymethylcellulose (CMC)) was 105 % of control, the T/C [3] was 72 % of control and the T/C (dose: 50.0 mg/kg/injection, schedule: Q01DX011 (ip), vehicle: methylcellulose (MC)) was 71 % of control. The T/C (dose: 62.5 mg/kg/injection, schedule: Q01DX011 (ip), vehicle: methylcellulose (MC)) was 43 % of control.
